# “Also recorded” adds a separate entry of the source. Where two headings read alike, the source gives them in different places.
# Assays:
# linearized pSV2gpt DNA = assay: DNA crosslinking assay (agarose gel electrophoresis of linearized plasmid); assay type: biochemical; settings: 2 h at 30° C., TE-80 buffer pH 8
# Method: The ability of representative compounds of the invention to bind to and cross-link DNA was examined. This was carried out by agarose gel electrophoresis of plasmid DNA using linearized pSV2gpt DNA (Tindall, K. R. and Stankowski, L. F.; Mutation Research, 1989 220 241-245) and the method reported by Valu et al, 1990, op.cit. Briefly, linearized pSV2gpt DNA (1 μL of a 1 mg/mL solution) was incubated with drug in TE-80 buffer (10 mM Tris.HCl, 1 mM EDTA at pH 8), shielded from ambient light, for 2 h at 30° C., then denatured by the addition of […] of 1% sodium dodecyl sulfate and 10 μL of 50 mM methylmercury hydroxide and incubated for a further 30 min at 20° C. in the dark. Renaturation of drug-treated DNA samples was carried out by incubation with 2.5 μL of 2-mercaptoethanol for 1 h. Samples were prepared for electrophoresis by the addition of 0.1 mg/mL bromophenol blue, 0.5 μg/mL ethidium bromide and 5 μL of 40% sucrose. Electrophoresis was carried out at 120V in 89 mM tris/borate buffer at pH 8 containing 2 mM EDTA and 0.5 μg/mL ethidium bromide. DNA was visualized using 302 nm trans-illumination, and was photographed using Polaroid type 55 film and a Wratten 3A filter.
# After drug treatment, DNA is denatured to the single stranded form, which runs as a lower band in the gels (see lanes 1 and 2 in FIG. 1). Cross-linking by the drugs is evidenced by the appearance of increasing amounts of renatured, double stranded DNA, as shown by the upper band in the gels, corresponding to the band for untreated DNA seen in lane 1.
# calf thymus DNA [1] = assay: Rate of alkylation of calf thymus DNA by increase in DNA-bound fluorescence; assay type: biochemical; parameters: unit not given here
# P388 cells = assay: Growth inhibition in vitro, P388 leukaemia; assay type: cell-based, murine
# Method: (§1) Representative examples of compounds of the invention were tested for biological activity against tumors. Compounds 1 to 6 and 14 to 21, prepared as described above, were tested for their ability to inhibit growth in vitro of cells of the wild-type murine leukaemia cell line P388, and the cell line AA8 which is derived from Chinese hamster ovary cells. For each compound, the IC50, ie. the concentration of compound which inhibited cell growth in treated cultures to 50% of that of controls, was determined, using means of three determinations. In addition, a hypersensitivity factor was determined by comparing activity of the compounds against AA8 cells to activity against UV4. The latter cell line is deficient in aspects of the excision repair pathway for removing DNA adducts, and is hypersensitive to DNA-alkylating agents, especially interstrand crosslinking agents. Previous work has shown that the ratio of IC50 s determined in the wild-type AA8 and mutant UV4 lines (the hypersensitivity factor HF) is a determinant of the mode of cell killing by alkylating agents (Palmer, B. D. et al, J. Med. Chem., 1990 33 112-121; Wilson, W. R. et al, J. Med. Chem., 1989 32 31-38). Compounds with HFs of ca. 1 are unlikely to kill cells via DNA alkylation events. Compounds which show high HF values are likely to form bulky adducts or cross-links,with the latter being especially likely for compounds showing the highest HF values (>ca. 25) (Wilson et al, op. cit.).
# (§2) Cell lines were maintained in exponential growth phase by subculturing in RPMI 1640 (P338) or Alpha MEM (AA8, UV4) containing 10% fetal calf serum, as previously described (Palmer et al, op.cit.; Baguley, B. C. and Wilson, W. R., Eur. J. Cancer Clin. Oncol., 1987 23 607-613). IC50 values were determined using log-phase cultures in 96-well microculture plates, and were calculated as the nominal drug concentration required to reduce the cell density to 50% of control values, using 8 control cultures on each microplate. For P388 cultures, drug was present throughout the growth period (72 h), and final cell densities were determined using a minor modification of the MTT method of Mossman (Mossman, T., J. Immunol. Methods, 1983 65 55-63). For AA8 and UV4 cultures, drug exposure was terminated after 18 h by washing three times with fresh medium. Cultures were then grown for a further 72 h before determining cell density by staining with methylene blue (Finlay, G. J. et al, Anal. Biochem., 1984 139 272-277).
# AA8 cells = assay: Growth inhibition in vitro, AA8; assay type: cell-based, Chinese hamster
# Method: as §1, §2
# AA8 and UV4 cells = assay: Hypersensitivity factor (AA8/UV4 IC50 ratio); assay type: cell-based, Chinese hamster; settings: ratio of IC50s AA8/UV4
# Method: as §1, §2
# P338 murine leukaemia = assay type: in vivo, mice; settings: for in vivo antitumour activity: P388, single-dose protocol; for Optimal dose: single i.p. dose; for % Increase in lifespan: single i.p. dose 24 h after tumour inoculation, at optimal dose (mg/kg: 1 30; 2 30; 3 13.3; 4 3.9; 5 5.9; 6 8.9)
# [2] = test system: Saccharomyces cerevisiae strain D5; settings: yeast strain D5, in words
# S. typhimurium TA98 = assay: Bacterial mutagenicity, plate incorporation assay, TA98; settings: mean ± SD
# S. typhimurium TA100 = assay: Bacterial mutagenicity, plate incorporation assay, TA100; settings: for reversion colonies, TA100: mean ± SD
# S. typhimurium TA102 = assay: Bacterial mutagenicity, plate incorporation assay, TA102; settings: mean ± SD
# calf thymus DNA [3] = assay: Reversible DNA binding by spectrophotometric Scatchard analysis; settings: 20° C., 0.01M HEPES buffer, pH 7.00
# [4] = P388 cells, 72 h, MTT, read-out: IC50
# [5] = AA8 cells, 18 h exposure, then 72 h growth, methylene blue, read-out: IC50
# [6] = 80 μg/plate, square brackets: toxicity becoming apparent
# [7] = 120 μg/plate, square brackets: toxicity becoming apparent
# [8] = 40 μg/plate, square brackets: toxicity becoming apparent
smiles,measurement,setting,value
"CN1CCN(c2ccc3nc(-c4ccc5nc(CCCc6ccc(N(CCCl)CCCl)cc6)[nH]c5c4)[nH]c3c2)CC1 [Compound 5, 2-[2-[3-[4-(N,N-bis(2-chloroethyl)amino)phenyl]propyl]-5-benzimidazolyl]-5-(1-methyl-4-piperazinyl)benzimidazole]",Cross-linking,linearized pSV2gpt DNA,No
same,Rate constant for alkylation,calf thymus DNA [1],6.52 × 10^4
same,IC50,P388 cells; [4],20 nM
same,IC50,AA8 cells; [5],1320 nM
same,Hypersensitivity factor,AA8 and UV4 cells,46
same,in vivo antitumour activity,P338 murine leukaemia,inactive in vivo at all doses up to the maximum tolerable dose
same,Optimal dose,P338 murine leukaemia,5.9 mg/kg
same,% Increase in lifespan,P338 murine leukaemia,not active
same,aberrant colonies in yeast,[2],some aberrant colonies
same,mitotic crossing-over,[2],weak mitotic crossing-over
same,"reversion colonies, TA98",S. typhimurium TA98; 4 μg/plate,63 ± 2
same,"reversion colonies, TA98",S. typhimurium TA98; 10 μg/plate,62 ± 1
same,"reversion colonies, TA98",S. typhimurium TA98; 20 μg/plate,71 ± 13
same,"reversion colonies, TA98",S. typhimurium TA98; 40 μg/plate,62 ± 3
same,"reversion colonies, TA98",S. typhimurium TA98; [6],63 ± 9
same,"reversion colonies, TA98",S. typhimurium TA98; [7],71 ± 1
same,"reversion colonies, TA100",S. typhimurium TA100; 4 μg/plate,188 ± 15
same,"reversion colonies, TA100",S. typhimurium TA100; 10 μg/plate,180 ± 5
same,"reversion colonies, TA100",S. typhimurium TA100; 20 μg/plate,205 ± 14
same,"reversion colonies, TA100",S. typhimurium TA100; 40 μg/plate,240 ± 7
same,"reversion colonies, TA100",S. typhimurium TA100; 80 μg/plate,258 ± 21
same,mutagenicity in TA100,S. typhimurium TA100; statistical analysis,could be considered to show a mutagenic effect in TA100; also recorded: mutagenic ability
same,"reversion colonies, TA102",S. typhimurium TA102; 4 μg/plate,342 ± 32
same,"reversion colonies, TA102",S. typhimurium TA102; 10 μg/plate,392 ± 31
same,"reversion colonies, TA102",S. typhimurium TA102; 20 μg/plate,368 ± 32
same,"reversion colonies, TA102",S. typhimurium TA102; [8],327 ± 17
same,"reversion colonies, TA102",S. typhimurium TA102; [6],480 ± 17
same,"reversion colonies, TA102",S. typhimurium TA102; [7],607 ± 28
same,Site size (Number of nucleotide residues),calf thymus DNA [3],3.0 nucleotide residues
"CCN(CCCl)c1ccc(CCc2nc3ccc(-c4nc5ccc(N6CCN(C)CC6)cc5[nH]4)cc3[nH]2)cc1 [Compound 15, 2-[2-[2-[4-(N-Ethyl-N-(2-chloroethyl)amino)phenyl]ethyl]-5-benzimidazoyl]-5-(1-methyl-4-piperazinyl)benzimidazole]",IC50,"P388 cells; Mus musculus, P388, 72 h",120 nM
"CN1CCN(c2ccc3nc(-c4ccc5nc(Cc6ccc(N(CCCl)CCCl)cc6)[nH]c5c4)[nH]c3c2)CC1 [Compound 3, 2-[2-[[4-(N,N-bis(2-chloroethyl)amino)phenyl]methyl]-5-benzimidazolyl]-5-(1-methyl-4-piperazinyl)benzimidazole]",Cross-linking,linearized pSV2gpt DNA,No
same,Rate constant for alkylation,calf thymus DNA [1],3.01 × 10^4
same,IC50,P388 cells; [4],850 nM
same,IC50,AA8 cells; [5],1500 nM
same,Hypersensitivity factor,AA8 and UV4 cells,59
same,in vivo antitumour activity,P338 murine leukaemia,retained significant in vivo activity
same,Optimal dose,P338 murine leukaemia,13.3 mg/kg
same,% Increase in lifespan,P338 murine leukaemia,71%
same,"reversion colonies, TA98",S. typhimurium TA98; 4 μg/plate,71 ± 2
same,"reversion colonies, TA98",S. typhimurium TA98; 10 μg/plate,83 ± 1
same,"reversion colonies, TA98",S. typhimurium TA98; 20 μg/plate,87 ± 6
same,"reversion colonies, TA98",S. typhimurium TA98; 40 μg/plate,86 ± 5
same,"reversion colonies, TA98",S. typhimurium TA98; [6],77 ± 10
same,"reversion colonies, TA98",S. typhimurium TA98; [7],86 ± 8
same,"reversion colonies, TA100",S. typhimurium TA100; 4 μg/plate,154 ± 8
same,"reversion colonies, TA100",S. typhimurium TA100; 10 μg/plate,130 ± 10
same,"reversion colonies, TA100",S. typhimurium TA100; 20 μg/plate,137 ± 43
same,"reversion colonies, TA100",S. typhimurium TA100; 40 μg/plate,167 ± 24
same,"reversion colonies, TA100",S. typhimurium TA100; 80 μg/plate,167 ± 8
same,"reversion colonies, TA100",S. typhimurium TA100; [7],157 ± 12
same,"reversion colonies, TA102",S. typhimurium TA102; 4 μg/plate,297 ± 38
same,"reversion colonies, TA102",S. typhimurium TA102; 10 μg/plate,237 ± 64
same,"reversion colonies, TA102",S. typhimurium TA102; 20 μg/plate,304 ± 16
same,"reversion colonies, TA102",S. typhimurium TA102; [8],268 ± 59
same,"reversion colonies, TA102",S. typhimurium TA102; [7],505 ± 121
same,Site size (Number of nucleotide residues),calf thymus DNA [3],3.0 nucleotide residues
CN1CCN(c2ccc3nc(-c4ccc5nc(CCCc6cccc(N(CCCl)CCCl)c6)[nH]c5c4)[nH]c3c2)CC1 [Compound 18],IC50,P388 cells; [4],> 1000 nM
"CCN(CCCl)c1ccc(CCCCCCc2nc3ccc(-c4nc5ccc(N6CCN(C)CC6)cc5[nH]4)cc3[nH]2)cc1 [Compound 16, 2-[2-[6-[4-(N-ethyl-N-(2-chloroethyl)amino)phenyl]hexyl]-5-benzimidazolyl]-5-(1-methyl-4-piperazinyl)benzimidazole]",IC50,"P388 cells; Mus musculus, P388, 72 h",370 nM
"CN1CCN(c2ccc3nc(-c4ccc5nc(-c6ccc(N(C)CCCl)cc6)[nH]c5c4)[nH]c3c2)CC1 [Compound 1, 2-[2-[4-(N-methyl-N-(2-chloroethyl)amino)phenyl]-5-benzimidazolyl]-5-(1-methyl-4-piperazinyl)benzimidazole]",IC50,"P388 cells; Mus musculus, P388, 72 h",500 nM
same,IC50,"AA8 cells; Cricetulus griseus, CHO-AA8",5750 nM
same,Hypersensitivity factor,AA8 and UV4 cells,14
same,Optimal dose,P338 murine leukaemia,30 mg/kg
same,% Increase in lifespan,P338 murine leukaemia,86%
same,"reversion colonies, TA98",S. typhimurium TA98; 4 μg/plate,70 ± 3
same,"reversion colonies, TA98",S. typhimurium TA98; 10 μg/plate,62 ± 7
same,"reversion colonies, TA98",S. typhimurium TA98; 20 μg/plate,67 ± 9
same,"reversion colonies, TA98",S. typhimurium TA98; 40 μg/plate,52 ± 7
same,"reversion colonies, TA98",S. typhimurium TA98; [6],65 ± 3
same,"reversion colonies, TA100",S. typhimurium TA100; 4 μg/plate,196 ± 23
same,"reversion colonies, TA100",S. typhimurium TA100; 10 μg/plate,162 ± 21
same,"reversion colonies, TA100",S. typhimurium TA100; 20 μg/plate,172 ± 13
same,"reversion colonies, TA100",S. typhimurium TA100; 40 μg/plate,226 ± 23
same,"reversion colonies, TA100",S. typhimurium TA100; 80 μg/plate,207 ± 12
same,"reversion colonies, TA102",S. typhimurium TA102; 4 μg/plate,406 ± 20
same,"reversion colonies, TA102",S. typhimurium TA102; 10 μg/plate,417 ± 26
same,"reversion colonies, TA102",S. typhimurium TA102; 20 μg/plate,442 ± 62
same,"reversion colonies, TA102",S. typhimurium TA102; [8],442 ± 43
"CCN(CCCl)c1cccc(CCCc2nc3ccc(-c4nc5ccc(N6CCN(C)CC6)cc5[nH]4)cc3[nH]2)c1 [Compound 19, 2-[2-[3-[3-(N-ethyl-N-(2-chloroethyl)amino)phenyl]propyl]-5-benzimidazolyl]-5-(1-methyl-4-piperazinyl)-benzimidazole]",IC50,"P388 cells; Mus musculus, P388, 72 h",< 60 nM
CCN(CCCl)c1ccc(CCCc2nc3ccc(-c4nc5ccc(N6CCN(C)CC6)cc5[nH]4)cc3[nH]2)cc1 [Compound 14],IC50,"P388 cells; Mus musculus, P388, 72 h",740 nM
"CCN(CCCl)c1ccccc1CCCc1nc2ccc(-c3nc4ccc(N5CCN(C)CC5)cc4[nH]3)cc2[nH]1 [Compound 21, 2-[2-[3-[2-(N-ethyl-N-(2chloroethyl)amino)phenyl]propyl]-5-benzimidazolyl]-5-(1-methyl-4-piperazinyl)-benzimidazole]",IC50,"P388 cells; Mus musculus, P388, 72 h",< 60 nM
"CCN(CCCl)c1ccc(Cc2nc3ccc(-c4nc5ccc(N6CCN(C)CC6)cc5[nH]4)cc3[nH]2)cc1 [Compound 17, 2-[2-[[4-(N-ethyl-N-(2-chloroethyl)amino)phenyl]methyl]-5-benzimidazoyl]-5-(1-methyl-4-piperazinyl)benzimidazole]",IC50,"P388 cells; Mus musculus, P388, 72 h",90 nM
CN1CCN(c2ccc3nc(-c4ccc5nc(CCCc6ccccc6N(CCCl)CCCl)[nH]c5c4)[nH]c3c2)CC1 [Compound 20],IC50,P388 cells; [4],610 nM

# — patent US5968933A, “DNA-targeted alkylating agents” (Auckland Division Cancer Society of New Zealand Inc., priority 1994, dated 1999)
